Laboratory results taken from article PMC9267128, “New 2-[(4-Amino-6-N-substituted-1,3,5-triazin-2-yl)methylthio]-N-(imidazolidin-2-ylidene)-4-chloro-5-methylbenzenesulfonamide Derivatives, Design, Synthesis and Anticancer Evaluation” (International Journal of Molecular Sciences, 2022).

What was measured:
T47D cells = test: Apoptosis analysis (Annexin V-PE/7-AAD flow cytometry) in T47D cells; type: cell-based; conditions: T47D (mutant p53), 5, 10 and 25 µM, 72 h
Description: Since the examined compounds exerted cytotoxic activity toward cell lines harboring mutant p53, the ability of compounds 140 and 48 to induce apoptosis in T47D cells with mutant p53 was examined. […] Cell death was induced to a similar extent in cells harboring wild-type and mutant p53 (Figure 10).
Levels of apoptosis were measured by flow cytometry using the Annexin V-PE Apoptosis Detection Kit I (BD Biosciences, Belgium) according to the manufacturer’s instructions. Apoptosis was assessed after a 72 h treatment of MCF7 and T47D cells with compounds 48 and 140 in the concentrations of 5, 10 and 25 µM. Proceeding cell treatment, cells were collected, washed with PBS and stained with Annexin V-phycoerythrin (PE) and 7-amino-actinomycin (7-AAD) in Annexin V binding buffer for 15 min at RT in the dark. After staining, cells were diluted in Annexin V binding buffer and analyzed on a BD FACSCalibur flow cytometer (BD Biosciences). At total of 10^4 cells were analyzed from each sample and data were analyzed with Flowing software (version 2.5).

[1] = tested on: T47D (breast cancer cell line); test: MTT assay, mutant p53 breast cancer cells T47D; type: cell-based; conditions: Homo sapiens, T47D, 72 h of incubation
Description: (§1) Thus, the ability of the selected compounds to exert cytotoxic activity toward cell lines harboring mutant p53 was examined. Compounds displaying a high selectivity index (Table 6) were selected for the analysis of their activity toward ovarian and breast cancer cells with wild-type p53 (A2780, MCF-7) and mutant p53 (SKOV-3, T47D).
(§2) Cell viability was examined using the MTT [3-(4,5-dimethylthiazol-2-yl)-2,5-diphenyltetrazolium bromide] assay. Cells were seeded in 96-well plates at a density of 3 × 10^3 cells/well and treated for 72 h with the tested compounds in the concentration range of 1–100 µM. Then, MTT (0.5 mg/mL) was added to the medium and cells were further incubated for 2 h at 37 °C. In the next stage, cells were lysed with DMSO and the absorbance of the formazan solution was measured at 550 nm with a plate reader (1420 multilabel counter, Victor, Jügesheim, Germany). The experiment was performed in triplicate. Values are expressed as the mean ± SD of at least three independent experiments. Cisplatin was used as a positive control.
(§3) Compounds 48, 62, 134, 138 and 140 were further examined toward MCF7 (breast cancer cell line, ATCC, HTB-22), T47D (breast cancer cell line, DSMZ ACC 739), A2780 (ovarian carcinoma cell line, ECACC, 93112519), and SKOV3 (ovarian carcinoma cell line, ATCC, HTB-77) cells. Cells were grown in Dulbecco’s Modified Eagle Medium (DMEM) supplemented with 10% fetal bovine serum (Thermo Fisher Scientific).

MCF-7 cells = test: Cell cycle analysis by flow cytometry (PI staining) in MCF-7 cells; type: cell-based, human; conditions: 48 h; for G0/G1 phase population of the cell cycle: MCF-7, 10 µM; for sub-G1 population of the cell cycle: MCF-7, 5, 10, 25 µM
Description: P53 controls cell proliferation through the regulation of the cell cycle. In order to determine p53-independent cell cycle arrest, the influence of selected compounds on the cell cycle distribution in MCF-7 cells was analyzed. Cells were treated with a concentration range of two selected compounds (140 and 48) for 48 h. Cell cycle distribution was analyzed with flow cytometry. […] Compound 140 at the lower concentration of 10 µM increased the G0/G1 population, whereas at the higher examined concentration of 25 µM, an increase in the G2/M phase of the cell cycle was observed.
Cell cycle distribution was analyzed with flow cytometry analysis with PI staining. MCF-7 cells were treated with compounds 48 and 140 (5, 10, 25 µM) for 48 h. Following treatment, the cells were collected and fixed in cold 70% ethanol for 24 h. The fixed cells were washed with PBS and incubated with 100 µg/mL RNAse (Invitrogen, Germany) and stained with 10 µg/mL PI (Invitrogen, Germany) for 30 min at RT. A total of 10^4 cells were examined with a FACSCalibur cytometer (BD) and data was analyzed with Flowing software (version 2.5).

[2] = tested on: SKOV3 (ovarian carcinoma cell line); test: MTT assay, mutant p53 ovarian cancer cells SKOV-3; type: cell-based; conditions: Homo sapiens, SK-OV-3, 72 h of incubation
Description: as §1, §2, §3

[3] = tested on: A2780 (ovarian carcinoma cell line); test: MTT assay, wild-type p53 ovarian cancer cells A2780; type: cell-based; conditions: Homo sapiens, A2780, 72 h of incubation
Description: as §1, §2, §3

HCT-116 (colon cancer) = test: MTT cell viability assay, HCT-116; type: cell-based, human; conditions: for IC50: MTT assay, 72 h of incubation; for Selectivity Index (SI) HCT-116: IC50 value toward HaCaT cells/IC50 value toward HCT-116
Summary of the method: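 HCT-116 and HeLa cells in DMEM/10% FBS exposed 72 h to compounds over 1–100 µM. Viability by MTT (0.5 mg/mL, 2 h, 37 °C), formazan dissolved in DMSO and read at 550 nm; mean ± SD of at least three independent experiments.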

SMILES | apoptotic cells (Annexin V-PE) (T47D cells) | IC50 [1] [µM] | G0/G1 phase population of the cell cycle (MCF-7 cells) | sub-G1 population of the cell cycle (MCF-7 cells) | IC50 [2] [µM] | IC50 [3] [µM] | IC50 (HCT-116 (colon cancer); Homo sapiens, HCT-116, 72 h) [µM] | Selectivity Index (SI) HCT-116 (HCT-116 (colon cancer)) | G2/M phase population of the cell cycle (MCF-7 cells; MCF-7, 25 µM) | IC50 (HCT-116 (colon cancer)) [µM]
Cc1cc(S(=O)(=O)N=C2NCCN2Cc2ccccc2)c(SCc2nc(N)nc(N3CCc4ccccc43)n2)cc1Cl [Compound 48] | concentration-dependent increase | 4.8 ± 0.1 | significant increase | concentration-dependent increase | 8.1 ± 0.1 | 4 ± 0.1 | 6 ± 0.1 | 5.5 | – | –
Cc1cc(S(=O)(=O)N=C2NCCN2Cc2ccc(C(F)(F)F)cc2)c(SCc2nc(N)nc(N3CCN(Cc4ccccc4)CC3)n2)cc1Cl [Compound 140] | concentration-dependent increase | 5.3 ± 0.1 | increased | concentration-dependent increase | 6.6 ± 0.1 | 4.5 ± 0.1 | < 6 | 4.4 | increase | 5 ± 0.2
